We go through one compound from paper PMC5104943, “Structural and Functional Characterization of a Ruminal β-Glycosidase Defines a Novel Subfamily of Glycoside Hydrolase Family 3 with Permuted Domain Topology” (The Journal of Biological Chemistry, 2016).

The assay addresses T1, GlyA1-ΔCt (rumen metagenome, UniProt Z9J456A3C9).
T1 sequence (Z9J456A3C9 2-799): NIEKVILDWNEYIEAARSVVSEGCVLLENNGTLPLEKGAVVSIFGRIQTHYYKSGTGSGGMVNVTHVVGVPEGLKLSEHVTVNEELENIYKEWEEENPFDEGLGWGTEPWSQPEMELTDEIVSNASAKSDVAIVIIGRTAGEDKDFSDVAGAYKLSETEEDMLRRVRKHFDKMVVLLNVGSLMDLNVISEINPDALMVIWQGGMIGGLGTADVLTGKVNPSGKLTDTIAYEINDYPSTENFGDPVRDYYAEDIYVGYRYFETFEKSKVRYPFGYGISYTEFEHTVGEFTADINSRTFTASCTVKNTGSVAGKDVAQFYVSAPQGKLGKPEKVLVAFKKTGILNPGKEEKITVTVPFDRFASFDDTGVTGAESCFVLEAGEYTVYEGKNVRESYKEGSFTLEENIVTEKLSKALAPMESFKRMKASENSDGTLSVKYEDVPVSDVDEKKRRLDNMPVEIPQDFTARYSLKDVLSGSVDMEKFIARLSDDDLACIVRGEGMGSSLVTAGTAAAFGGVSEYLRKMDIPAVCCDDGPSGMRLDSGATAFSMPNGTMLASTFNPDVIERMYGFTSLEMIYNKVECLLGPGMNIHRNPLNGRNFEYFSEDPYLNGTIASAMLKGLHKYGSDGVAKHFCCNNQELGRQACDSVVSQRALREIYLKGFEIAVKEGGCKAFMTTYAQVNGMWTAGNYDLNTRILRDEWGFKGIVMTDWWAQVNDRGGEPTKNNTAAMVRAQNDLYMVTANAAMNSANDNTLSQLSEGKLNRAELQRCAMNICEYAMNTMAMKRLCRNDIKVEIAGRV
The experiment in a line: X-ray crystallography, […] Å, soak […]. It counts as binding. The note with it: active site subsite -1, semi-chair conformation; 2.0 M ammonium sulfate, pH 5.5.

In the case of `OC[C@H]1OC(O)[C@H](O)[C@@H](O)[C@H]1O` (stereo partly drawn) [D-galactose], the “X-ray crystallography, 2.29 Å, soak 5-50 mM” value was “soaking of crystals with galactose showed that this sugar displays a semi-chair conformation”.
